Measurements taken from ChEMBL document CHEMBL4411307, “N,N'-diaryl-bishydrazones in a biphenyl platform: Broad spectrum antifungal agents” (Eur J Med Chem, 2019).
Converted amounts (≈) assume the structure as drawn. The source made the active and inactive calls. The calls are words filed in the database; no cut-off is given here.

Legend:
[1] = Selectivity index, ratio of CC50 for human A549 cells to MIC for fluconazole/ITC-resistant Candida albicans ATCC MYA-1003; format: toxicity; details: read-out: Selectivity Index
[2] = Selectivity index, ratio of CC50 for human A549 cells to MIC for fluconazole/ITC-resistant Candida albicans ATCC MYA-1237; format: toxicity; details: read-out: Selectivity Index
[3] = test system: A549; assay: Cytotoxicity against human A549 cells after 24 hrs by resazurin based assay; format: cell-based; details: a549, 24 h
[4] = Selectivity index, ratio of compound concentration showing <20 to <30% hemolysis in mouse RBC to MIC for Aspergillus terreus ATCC MYA-3633; format: toxicity; details: mouse red blood cells (RBC), read-out: Selectivity Index
[5] = Selectivity index, ratio of compound concentration showing <20 to <30% hemolysis in mouse RBC to MIC for fluconazole/ITC-susceptible Candida albicans ATCC MYA-2876; format: toxicity; details: red blood cells (erythrocytes), read-out: Selectivity Index
[6] = Selectivity index, ratio of compound concentration showing <20 to <30% hemolysis in mouse RBC to MIC for Candida parapsilosis ATCC 22019; format: toxicity; details: mouse red blood cells (RBC), read-out: Selectivity Index
[7] = Selectivity index, ratio of compound concentration showing <20 to <30% hemolysis in mouse RBC to MIC for fluconazole/ITC-resistant Candida albicans ATCC MYA-1237; format: toxicity; details: mouse red blood cells (RBC), read-out: Selectivity Index
[8] = test system: Listeria monocytogenes; assay: Antibacterial activity against Listeria monocytogenes; format: functional, organism-based
[9] = Selectivity index, ratio of compound concentration showing <20 to <30% hemolysis in mouse RBC to MIC for Aspergillus nidulans ATCC 38163; format: toxicity; details: mouse red blood cells (RBC), read-out: Selectivity Index
[10] = Hemolytic activity in mouse RBC at 3.9 ug/ml after 1 hr relative to control; format: ADME, cell-based, Erythrocyte; details: red blood cells (erythrocytes), read-out: Activity
[11] = Selectivity index, ratio of CC50 for human A549 cells to MIC for fluconazole/ITC-susceptible Candida albicans ATCC MYA-2310; format: toxicity; details: read-out: Selectivity Index
[12] = test system: Candida albicans; assay: Antifungal activity against fluconazole/ITC-resistant Candida albicans ATCC 10231 measured after 48 hrs by CLSI M27-A3 protocol based method; format: functional; details: ATCC 10231, 48 h
[13] = test system: Nakaseomyces glabratus; assay: Antifungal activity against Candida glabrata ATCC 2001 measured after 48 hrs by CLSI M27-A3 protocol based method; format: functional; details: CBS 138, 48 h
[14] = Selectivity index, ratio of CC50 for human A549 cells to MIC for Candida glabrata ATCC 2001; format: toxicity; details: read-out: Selectivity Index
[15] = Hemolytic activity in mouse RBC at 7.8 ug/ml after 1 hr relative to control; format: ADME, cell-based, Erythrocyte; details: red blood cells (erythrocytes), read-out: Activity
[16] = test system: Pichia kudriavzevii; assay: Antifungal activity against Candida krusei ATCC 6258 measured after 48 hrs by CLSI M27-A3 protocol based method; format: functional; details: ATCC 6258, 48 h
[17] = Hemolytic activity in mouse RBC at 31.3 ug/ml after 1 hr relative to control; format: ADME, cell-based, Erythrocyte; details: red blood cells (erythrocytes), read-out: Activity
[18] = test system: Candida albicans; assay: Antifungal activity against fluconazole/ITC-susceptible Candida albicans ATCC MYA-2876 measured after 48 hrs by CLSI M27-A3 protocol based method; format: functional; details: ATCC MYA-2876, 48 h
[19] = test system: Enterococcus; assay: Antibacterial activity against vancomycin-resistant Enterococcus; format: functional, organism-based
[20] = Selectivity index, ratio of CC50 for human A549 cells to MIC for Aspergillus terreus ATCC MYA-3633; format: toxicity; details: read-out: Selectivity Index
[21] = biological target: Voltage-gated inwardly rectifying potassium channel KCNH2 (Homo sapiens, UniProt Q12809); assay: Inhibition of [3H]-dofetilide binding to human ERG expressed in HEK293 cell membranes measured after 1 hr by liquid scintillation counting method
Voltage-gated inwardly rectifying potassium channel KCNH2, sequence (Q12809 whole entry): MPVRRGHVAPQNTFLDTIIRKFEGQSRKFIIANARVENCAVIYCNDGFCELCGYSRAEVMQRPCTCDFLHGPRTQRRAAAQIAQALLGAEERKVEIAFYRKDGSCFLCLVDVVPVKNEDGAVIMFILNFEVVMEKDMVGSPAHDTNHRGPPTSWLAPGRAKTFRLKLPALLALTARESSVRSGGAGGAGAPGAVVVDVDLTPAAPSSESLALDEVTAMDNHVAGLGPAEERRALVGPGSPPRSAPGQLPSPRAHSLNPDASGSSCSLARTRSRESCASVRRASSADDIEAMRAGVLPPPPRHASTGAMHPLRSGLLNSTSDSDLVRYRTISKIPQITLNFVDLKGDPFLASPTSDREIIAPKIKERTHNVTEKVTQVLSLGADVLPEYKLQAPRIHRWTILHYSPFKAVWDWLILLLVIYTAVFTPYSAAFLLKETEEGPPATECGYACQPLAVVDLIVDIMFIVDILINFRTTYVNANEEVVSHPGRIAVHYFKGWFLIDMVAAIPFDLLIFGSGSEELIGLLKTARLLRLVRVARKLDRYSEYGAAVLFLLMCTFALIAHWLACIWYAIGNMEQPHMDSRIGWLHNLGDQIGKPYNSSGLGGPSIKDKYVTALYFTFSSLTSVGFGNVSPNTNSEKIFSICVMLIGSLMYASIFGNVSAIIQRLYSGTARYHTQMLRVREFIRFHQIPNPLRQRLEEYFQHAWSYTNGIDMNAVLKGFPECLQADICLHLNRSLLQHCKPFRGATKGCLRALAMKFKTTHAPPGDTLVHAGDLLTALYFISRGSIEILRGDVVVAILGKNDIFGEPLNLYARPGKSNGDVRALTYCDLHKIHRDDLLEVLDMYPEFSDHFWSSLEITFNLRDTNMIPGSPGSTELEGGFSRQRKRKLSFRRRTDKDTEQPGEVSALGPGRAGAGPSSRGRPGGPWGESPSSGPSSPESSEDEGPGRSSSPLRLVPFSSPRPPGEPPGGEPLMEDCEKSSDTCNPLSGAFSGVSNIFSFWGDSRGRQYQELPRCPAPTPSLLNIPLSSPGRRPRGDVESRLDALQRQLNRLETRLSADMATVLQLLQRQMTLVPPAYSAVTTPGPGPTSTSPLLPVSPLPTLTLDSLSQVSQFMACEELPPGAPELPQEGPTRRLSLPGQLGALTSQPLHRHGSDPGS

[22] = test system: Candida albicans; assay: Antifungal activity against fluconazole/ITC-resistant Candida albicans ATCC 64124 measured after 48 hrs by CLSI M27-A3 protocol based method; format: functional; details: ATCC 64124, 48 h
[23] = Selectivity index, ratio of CC50 for human A549 cells to MIC for fluconazole/ITC-resistant Candida albicans ATCC 10231; format: toxicity; details: read-out: Selectivity Index
[24] = Selectivity index, ratio of compound concentration showing <20 to <30% hemolysis in mouse RBC to MIC for fluconazole/ITC-resistant Candida albicans ATCC 64124; format: toxicity; details: red blood cells (erythrocytes), read-out: Selectivity Index
[25] = Selectivity index, ratio of compound concentration showing <20 to <30% hemolysis in mouse RBC to MIC for fluconazole/ITC-resistant Candida albicans ATCC 90819; format: toxicity; details: red blood cells (erythrocytes), read-out: Selectivity Index
[26] = test system: Candida parapsilosis; assay: Antifungal activity against Candida parapsilosis ATCC 22019 measured after 48 hrs by CLSI M27-A3 protocol based method; format: functional; details: Lodderomyces parapsilosis, ATCC 22019, 48 h
[27] = Selectivity index, ratio of CC50 for human A549 cells to MIC for fluconazole/ITC-susceptible Candida albicans ATCC MYA-2876; format: toxicity; details: read-out: Selectivity Index
[28] = Selectivity index, ratio of compound concentration showing <20 to <30% hemolysis in mouse RBC to MIC for Candida glabrata ATCC 2001; format: toxicity; details: mouse red blood cells (RBC), read-out: Selectivity Index
[29] = Selectivity index, ratio of CC50 for human A549 cells to MIC for fluconazole/ITC-resistant Candida albicans ATCC 90819; format: toxicity; details: read-out: Selectivity Index
[30] = Selectivity index, ratio of CC50 for human A549 cells to MIC for Candida krusei ATCC 6258; format: toxicity; details: read-out: Selectivity Index
[31] = test system: Candida albicans; assay: Antifungal activity against fluconazole/ITC-resistant Candida albicans ATCC 90819 measured after 48 hrs by CLSI M27-A3 protocol based method; format: functional; details: ATCC 90819, 48 h
[32] = Selectivity index, ratio of compound concentration showing <20 to <30% hemolysis in mouse RBC to MIC for fluconazole/ITC-susceptible Candida albicans ATCC MYA-2310; format: toxicity; details: mouse red blood cells (RBC), read-out: Selectivity Index
[33] = test system: Staphylococcus aureus; assay: Antibacterial activity against methicillin-resistant Staphylococcus aureus; format: functional, organism-based
[34] = test system: Candida albicans; assay: Antifungal activity against fluconazole/ITC-resistant Candida albicans ATCC MYA-1237 measured after 48 hrs by CLSI M27-A3 protocol based method; format: functional; details: ATCC MYA-1237, 48 h
[35] = test system: Aspergillus terreus; assay: Antifungal activity against Aspergillus terreus ATCC MYA-3633 measured after 48 hrs by CLSI M38-A2 protocol based method; format: functional; details: ATCC MYA-3633, 48 h
[36] = Selectivity index, ratio of CC50 for human A549 cells to MIC for Candida parapsilosis ATCC 22019; format: toxicity; details: read-out: Selectivity Index
[37] = test system: BEAS-2B; assay: Cytotoxicity against human BEAS2B cells after 24 hrs by resazurin based assay; format: cell-based
[38] = Selectivity index, ratio of compound concentration showing <20 to <30% hemolysis in mouse RBC to MIC for fluconazole/ITC-resistant Candida albicans ATCC MYA-1003; format: toxicity; details: mouse red blood cells (RBC), read-out: Selectivity Index
[39] = Hemolytic activity in mouse RBC at […] ug/ml after 1 hr relative to control; format: ADME, cell-based, Erythrocyte; details: red blood cells (erythrocytes), read-out: Activity
[40] = test system: Aspergillus flavus; assay: Antifungal activity against Aspergillus flavus ATCC MYA-3631 measured after 48 hrs by CLSI M38-A2 protocol based method; format: functional; details: ATCC MYA-3631, 48 h
[41] = Hemolytic activity in mouse RBC at […] after 1 hr relative to control; format: ADME, cell-based, Erythrocyte; details: red blood cells (erythrocytes), read-out: Activity; further: tested at 0.48 µg/mL
[42] = test system: Aspergillus nidulans; assay: Antifungal activity against Aspergillus nidulans ATCC 38163 measured after 48 hrs by CLSI M38-A2 protocol based method; format: functional; details: ATCC 38163, 48 h
[43] = test system: Candida albicans; assay: Antifungal activity against fluconazole/ITC-susceptible Candida albicans ATCC MYA-2310 measured after 48 hrs by CLSI M27-A3 protocol based method; format: functional; details: ATCC MYA-2310, 48 h
[44] = Hemolytic activity in mouse RBC at 62.5 ug/ml after 1 hr relative to control; format: ADME, cell-based, Erythrocyte; details: red blood cells (erythrocytes), read-out: Activity
[45] = Selectivity index, ratio of CC50 for human A549 cells to MIC for Aspergillus nidulans ATCC 38163; format: toxicity; details: read-out: Selectivity Index
[46] = Selectivity index, ratio of CC50 for human A549 cells to MIC for Aspergillus flavus ATCC MYA-3631; format: toxicity; details: read-out: Selectivity Index
[47] = Selectivity index, ratio of compound concentration showing <20 to <30% hemolysis in mouse RBC to MIC for Candida krusei ATCC 6258; format: toxicity; details: mouse red blood cells (RBC), read-out: Selectivity Index
[48] = Selectivity index, ratio of compound concentration showing <20 to <30% hemolysis in mouse RBC to MIC for Aspergillus flavus ATCC MYA-3631; format: toxicity; details: mouse red blood cells (RBC), read-out: Selectivity Index
[49] = test system: Candida albicans; assay: Antifungal activity against fluconazole/ITC-resistant Candida albicans ATCC MYA-1003 measured after 48 hrs by CLSI M27-A3 protocol based method; format: functional; details: ATCC MYA-1003, 48 h
[50] = Selectivity index, ratio of compound concentration showing <20 to <30% hemolysis in mouse RBC to MIC for fluconazole/ITC-resistant Candida albicans ATCC 10231; format: toxicity; details: red blood cells (erythrocytes), read-out: Selectivity Index
[51] = Selectivity index, ratio of CC50 for human A549 cells to MIC for fluconazole/ITC-resistant Candida albicans ATCC 64124; format: toxicity; details: read-out: Selectivity Index
[52] = Hemolytic activity in mouse RBC at 1.95 ug/ml after 1 hr relative to control; format: ADME, cell-based, Erythrocyte; details: red blood cells (erythrocytes), read-out: Activity

Compound: Fc1ccc(N/N=C/c2ccc(-c3cccc(/C=N/Nc4ccc(F)cc4)c3)cc2)cc1
- selectivity ratio [1]: 8
- selectivity ratio [2]: 2
- CC50 [3]: > 31 µg/mL
- selectivity ratio [4]: 1 to 32
- selectivity ratio [5]: 1 to 32
- selectivity ratio [6]: 1 to 32
- selectivity ratio [7]: 1 to 32
- Activity [8]: inactive
- selectivity ratio [9]: 1 to 32
- hemolysis at 1 h, 3.9 ug/ml [10]: 4.3%
- selectivity ratio [11]: 4
- MIC [12]: 1.95 to 3.9 µg/mL (≈ 4.57 to 9.14 µM)
- MIC [13]: > 31.3 µg/mL
- selectivity ratio [14]: 1
- hemolysis at 1 h, 7.8 ug/ml [15]: 9.5%
- MIC [16]: > 31.3 µg/mL
- hemolysis at 1 h, 31.3 ug/ml [17]: 14.4%
- MIC [18]: 7.8 µg/mL (≈ 18.3 µM)
- Activity [19]: inactive
- selectivity ratio [20]: 1
- IC50 [21]: > 30 µM
- MIC [22]: 15.6 µg/mL (≈ 36.6 µM)
- selectivity ratio [23]: 16
- selectivity ratio [24]: 1 to 32
- selectivity ratio [25]: 1 to 32
- MIC [26]: 31.3 µg/mL (≈ 73.4 µM)
- selectivity ratio [27]: 4
- selectivity ratio [28]: 1 to 32
- selectivity ratio [29]: 1
- selectivity ratio [30]: 1
- MIC [31]: > 31.3 µg/mL
- selectivity ratio [32]: 1 to 32
- Activity [33]: inactive
- MIC [34]: 15.6 µg/mL (≈ 36.6 µM)
- MIC [35]: > 31.3 µg/mL
- selectivity ratio [36]: 1
- CC50 [37]: > 31 µg/mL
- selectivity ratio [38]: 1 to 32
- hemolysis at 1 h, 15.6 ug/ml ([39]; at 15.6 µg/mL): 9.9%
- hemolysis at 1 h, 0.975 ug/ml [39]: 0%
- MIC [40]: 15.6 µg/mL (≈ 36.6 µM)
- hemolysis at 1 h, […] [41]: 0.1%
- MIC [42]: 3.9 µg/mL (≈ 9.14 µM)
- MIC [43]: 7.8 µg/mL (≈ 18.3 µM)
- hemolysis at 1 h, 62.5 ug/ml [44]: 26.1%
- selectivity ratio [45]: 8
- selectivity ratio [46]: 2
- selectivity ratio [47]: 1 to 32
- selectivity ratio [48]: 1 to 32
- MIC [49]: 3.9 µg/mL (≈ 9.14 µM)
- selectivity ratio [50]: 1 to 32
- selectivity ratio [51]: 2
- hemolysis at 1 h, 1.95 ug/ml [52]: 6%
